Measurements published in US5264556A, “Monoclonal antibodies for measuring okadaic acid” (priority 1992, dated 1993).

Key:
6/50 antibody = assay: Cross-reactivity of 6/50 antibody with OA analogues in competitive ELISA (FIG. 9); assay type: binding, mouse; conditions: toxins in 40% MEOH
Experimental: FIG. 9A Assay wells were coated with OA and incubated with a fixed concentration of 6/50 IgG and varying amounts of each toxin in 40% MEOH.
FIG 9B & 9C Assay wells were coated with purified antiidiotypic antibody (1/59) F(ab')2 fragments (5 μg/ml) and incubated with a fixed concentration of mAb 6/50 (100 ng/ml) and varying amounts of OA analogues in 40% MEOH.
In FIG. 9A, the assay wells were coated with OA and incubated with a fixed concentration of 6/50 IgG and varying amounts of each toxin in 40% MEOH. Bound antibody was detected with HRP-conjugated anti-mouse IgG. Toxins used in this competitive ELISA were generously donated by Dr. Takeshi Yasumoto (Tohoku University, Japan).
For FIG. 9B and 9C, the assay wells were coated with purified anti-idiotypic (1/59) F(ab')2 (5μg/ml) and incubated with a fixed concentration of antibody 6/50 (100 ng/ml) and varying amounts of okadaic acid analogues in 40% MEOH. Bound 6/50 IgG was detected with HRP-conjugated anti-mouse IgG Fc fragment specific antisera.

[1] = tested on: F(ab')2 fragments of 6/50 IgG; assay: Competition ELISA, Example II: free OA versus 1/59 IgG for binding to solid-phase 6/50 F(ab')2; design: species or system mouse; conditions: free OA 0-10 μg/ml in 10% MeOH, 1/59 500 ng/ml
Experimental: In the reverse assay, 96-well microtiter plates are coated with 100 μl of 10 μg/ml of F(ab')2 fragments of 6/50 IgG in 0.05M sodium carbonate bicarbonate buffer, pH 9.6, overnight at 4° C. The unbound F(ab')2 fragments are washed off with Tris-buffered saline and the remaining binding sites are saturated with 200 μl of 1% powdered-milk in Tris-saline (TS-MILK) for one hour at 37° C. After washing, the wells are incubated simultaneously with 50 μl of a fixed amount of anti-idiotypic IgG 1/59 (500 ng/ml) and 50 μl of free OA diluted in 10% methanol (MeOH) at increasing concentrations (0-10 μg/ml) for one hour at 37° C. After the unbound antibody and antigen are washed off, 100 μl of a peroxidase conjugated goat anti-mouse IgG Fc-fragment-specific antiserum is added for one hour at 37° C.
The colorimetric reaction is developed upon the addition of 0.03% H2 O2 in 0.1 M sodium citrate buffer, pH 7.0, containing 0.1% OPD. The reaction is stopped with 3 N H2 SO4 and the color intensity measured at a wavelength of 492 nm using a BioRad® ELISA reader.

[2] = target: protein phosphatase-1 (PP1) catalytic subunit; assay: Standard phosphorylase a phosphatase assay, PP1; assay type: biochemical, rabbit; conditions: standard commercial preparation of okadaic acid; read-out: IC50 for PP1 inhibition
Experimental: (§1) The biological activity of OA was assayed by the ability of this toxin to inhibit dephosphorylation of ^32 P-radiolabelled glycogen phosphorylase (E.C. 2.4.1.1) by protein phosphatases (E.C. 3.1.3.16) in the standard phosphorylase phosphatase assay.
(§2) Phosphorylase (50 mM) is dialyzed extensively against NaF (15 mM) to block endogenous phosphatase activity. The protein is diluted to 3 mg/ml (30 pmol/μl ) in Tris HCl (50 mM, pH 7.0) containing ethylenediamine tetra-acetic acid (EDTA, 0.1 mM), bovine serum albumin (1 mg/ml), 2-mercaptoethanol (0.2% v/v) and caffeine (15mM). An incubation comprising 10 μl protein phosphatase-1 or -2A (PP2A, 1 mU/ml in Tris HCl, pH 7.0) and 10 μl phosphatase inhibitor (in Tris HCl, pH 7.0) is carried out for 10 minutes at 30° C. An aliquot (10 μl) of phosphorylase (30 pmol/μl, specific radioactivity >0.6×10^6 dpm/nmol) is added to start the reaction, which is terminated after 10 minutes by adding 200 μl trichloroacetic acid (20% w/v,TCA). The suspension is vortexed, stood on ice for 1 minute and centrifuged at 15,000g for 2 minutes. An aliquot (200 μl) of supernatant is added to 1 ml scintillant and counted. One milliunit(mU) of protein phosphatase activity releases 1 nmol phosphate from phosphorylase per minute. […]

[3] = target: T1, protein phosphatase-2A (PP2A) catalytic subunit (Oryctolagus cuniculus, UniProt P67777); assay: Standard phosphorylase a phosphatase assay, PP2A; assay type: biochemical, rabbit; conditions: standard commercial preparation of okadaic acid; read-out: IC50 for PP2A inhibition
T1 construct: Homogeneous PP-1 and -2A catalytic subunits are purified from rabbit skeletal muscle; from tissue; host or cells: rabbit skeletal muscle
Experimental: as §1, §2

6/50 IgG = assay: Competitive ELISA, Example IV: solid-phase OA versus free OA for binding to 6/50 IgG; design: species or system mouse; conditions: OA standards 0-30 ng/ml in 10% MeOH
Experimental: This assay is based on the competition between solid-phase attached OA and free OA (analyte) for binding to a limited number of binding sites on 6/50 IgG in solution.
Thus, 96-well microtiter plates are coated with 100 μl of OA-OVAL (10 μg/ml) in 0.05M sodium carbonate bicarbonate buffer, pH 9.6, overnight at 4° C. The unbrund OA-OVAL is washed off with Tris-buffered saline and the remaining binding sites are saturated with 200 μl of TS-MILK for one hour at 37° C. After washing, the wells are incubated simultaneously with 50 μl of OA standards (0-30 ng/ml) diluted in 10% MeOH and applied in the presence of 50 μl of limiting amounts of 6/50 IgG for one hour at 37° C. After the unbound antibody and antigen are washed off, 100 μl of a peroxidase conjugated goat anti-mouse IgG antiserum diluted in TS-MILK is added and incubated for one hour at 37° C.
Ihe colorimetric reaction is developed upon the add:tion of 0.03% H2 O2 in 0.1 M sodium citrate buffer, pH 7.0, containing 0.1% OPD. The reaction is stopped with 3 N H2 SO4 and the color intensity measured at a wavelength of 492 nm using a BioRad ELISA reader.

Solubility of OA = assay type: physicochemical
Excerpt: It is obvious that methanol has a deleterious effect on 6/50 IgG binding to OA since the sensitivity of OA detection in the presence of 40% MeOH drops considerably when compared with 10% MeOH content. The addition of 10% MeOH seems to be the optimal for this assay. Absence of MeOH decreases OA solubility and thus the slope of the standard curve.

T1 sequence (P67777 whole entry): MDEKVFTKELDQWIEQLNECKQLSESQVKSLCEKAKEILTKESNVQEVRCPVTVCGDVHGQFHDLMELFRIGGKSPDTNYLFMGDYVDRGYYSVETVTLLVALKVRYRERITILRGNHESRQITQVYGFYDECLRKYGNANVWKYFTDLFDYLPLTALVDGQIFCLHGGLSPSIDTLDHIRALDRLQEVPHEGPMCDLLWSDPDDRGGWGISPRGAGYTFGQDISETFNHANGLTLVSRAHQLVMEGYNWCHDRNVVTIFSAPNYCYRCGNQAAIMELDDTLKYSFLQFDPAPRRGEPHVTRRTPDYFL

C=C1C(O)C2OC3(CCC(C=CC(C)C4CC(C)=CC5(OC(CC(C)(O)C(=O)O)CCC5O)O4)O3)CCC2OC1C(O)CC(C)C1OC2(CCC1C)OCCCC2C (stereo not shown) [DTX-1, 35-methyl-okadaic acid]
binding to 6/50 antibody relative to okadaic acid (cross-reactivity) (6/50 antibody): significantly lower affinity

C=C1[C@@H](O)[C@@H]2O[C@]3(CC[C@H](/C=C/[C@@H](C)[C@@H]4CC(C)=C[C@@]5(O[C@H](C[C@@](C)(O)C(=O)O)CC[C@H]5O)O4)O3)CC[C@H]2O[C@@H]1[C@@H](O)C[C@H](C)[C@H]1O[C@@]2(CCCCO2)CC[C@H]1C [okadaic acid]
inhibition of 1/59 IgG binding to solid-phase bound 6/50 IgG F(ab')2 [1]: clearly inhibited | IC50 [2]: 19 nM | IC50 [3]: 0.2 nM | competition with solid-phase fixed OA for binding to 6/50 (6/50 IgG): dose-dependent manner | solubility (Solubility of OA): only soluble in the presence of organic solvents

C=C1C(C(CC(C)C2OC3(CCCCO3)CCC2C)OC(C)=O)OC2CCC3(CCC(C=CC(C)C4CC(C)=CC5(OC(CC(C)(OC(C)=O)C(=O)O)CCC5OC(C)=O)O4)O3)OC2C1OC(C)=O (stereo not shown) [tetra acetyl okadaic acid]
binding to 6/50 antibody relative to okadaic acid (cross-reactivity) (6/50 antibody): significantly lower affinity
